Measured values reported in article PMC2120756 (The Journal of Cell Biology, 1996).

Molecular target: NHE-1 (Na+/H+ exchanger isoform 1) (Homo sapiens, UniProt P19634)
Experiment: BCECF pHi recovery from NH4Cl acid load
Format: cell-based

NHE-1 (Na+/H+ exchanger isoform 1), sequence (P19634 whole entry, canonical isoform): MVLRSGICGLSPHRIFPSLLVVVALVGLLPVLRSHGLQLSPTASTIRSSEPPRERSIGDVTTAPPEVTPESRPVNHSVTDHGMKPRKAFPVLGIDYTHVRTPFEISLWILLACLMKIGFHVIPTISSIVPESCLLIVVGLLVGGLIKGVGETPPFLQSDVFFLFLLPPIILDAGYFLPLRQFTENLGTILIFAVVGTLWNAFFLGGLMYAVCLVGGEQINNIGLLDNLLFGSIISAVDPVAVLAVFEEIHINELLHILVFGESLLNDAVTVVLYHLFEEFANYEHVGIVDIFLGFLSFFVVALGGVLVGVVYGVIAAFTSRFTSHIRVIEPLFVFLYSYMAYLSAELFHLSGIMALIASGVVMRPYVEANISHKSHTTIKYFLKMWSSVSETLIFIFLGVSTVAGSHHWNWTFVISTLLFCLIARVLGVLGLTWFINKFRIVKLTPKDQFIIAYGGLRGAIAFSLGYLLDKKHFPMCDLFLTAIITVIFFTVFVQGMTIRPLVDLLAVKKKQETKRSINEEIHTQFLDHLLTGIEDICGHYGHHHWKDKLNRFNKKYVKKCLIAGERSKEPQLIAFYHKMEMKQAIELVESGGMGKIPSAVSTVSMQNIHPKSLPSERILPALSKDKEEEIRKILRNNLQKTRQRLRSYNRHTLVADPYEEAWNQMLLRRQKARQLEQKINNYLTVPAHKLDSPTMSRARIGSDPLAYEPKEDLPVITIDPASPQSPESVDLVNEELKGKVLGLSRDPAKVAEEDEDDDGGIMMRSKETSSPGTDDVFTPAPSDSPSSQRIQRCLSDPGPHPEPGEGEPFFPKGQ

IC50: ~10 nM
SMILES: CS(=O)(=O)c1cc(C(=O)N=C(N)N)ccc1N1CCCCC1 [HOE694]
